# From article PMC9620869 (Cancer Research, 2022)
# Tests used:
# hiPSC-CMs = experiment: hiPSC-CM contractility; format: cell-based; conditions: Homo sapiens, 96 h, read-out: hiPSC-CM contractility IC50
# HMVEC-Cs = experiment: Vasculogenesis assay; conditions: Homo sapiens, 6 h
# serum cardiac Troponin-I = conditions: 30 mg/kg oral daily, end of treatment
# in vivo = conditions: male, C57Bl/6, mouse, plasma, po, 10 mg/kg
# [1] = oral dose escalation, maximal dose 60 mg/kg, 30 days
smiles,measurement,setting,value
Cc1ccc(C(=O)Nc2ccc(CN3CCN(C)CC3)c(C(F)(F)F)c2)cc1C#Cc1cnc2cccnn12 [Ponatinib],IC50,hiPSC-CMs,> 1500 nM
same,IC50,HMVEC-Cs; read-out: Vascular profile IC50,~200 nM
same,EC50,"HMVEC-Cs; read-out: Vasculotoxicity (EC50, μmol/L) mean ± SEM",0.2 ± 0.04 µmol/L
same,serum cardiac Troponin-I levels compared with vehicle alone,serum cardiac Troponin-I,significantly elevated levels
same,Cmax,in vivo,200 ng/mL
same,Tmax,in vivo,2 h
same,dose causing lethality,[1],50 mg/kg
